Test results reported in paper PMC11237694, “Novel pentafluorosulfanyl-containing triclocarban analogs selectively kill Gram-positive bacteria” (Microbiology Spectrum, 2024).
≈ marks a conversion by molar mass, not a printed value.

Assays:
P. aeruginosa ATCC 27853 = assay: Planktonic susceptibility (MIC/MBC), 96-well broth microdilution; assay type: cell-based; conditions: Pseudomonas aeruginosa; for MBC: ATCC27853; for MIC: ATCC27853, planktonic, overnight 37°C in MHB
Method: (§1) All bacterial strains subjected to testing had been stored at −70°C prior to the experiment. The experiment commenced by streaking small amounts of the frozen bacterial samples onto Muller-Hinton agar (MHA) culture medium (BD Bacto, Oxoid, Basingstoke, UK Cat# X296B) and allowing for overnight incubation. Bacteria were re-cultured on MHA plates as required to confirm colony morphology and lack of contamination. Strains tested were P. aeruginosa ATCC 27853, E. coli ATCC 25922, Staphylococcus aureus ATCC 25923, MRSA ATCC 33591, S. epidermidis ATCC 12228, Klebsiella pneumoniae ATCC, P. mirabilis ATCC 35659, and 10 clinical isolates of MRSA from Foothills Hospital, Calgary, Canada. To prepare for susceptibility testing, a protocol modified from Lemire et al was used ([28]). MHB was swab-inoculated from MHA colonies and shake-incubated until turbid. Dilution of the broth with 0.9% saline was performed as necessary to match a 1.0 McFarland standard.
(§2) MIC and MBC assessments were conducted on all bacterial strains using 96-well microtiter plates. To prepare the wells for bacteria, serial dilutions of the antibacterial agents were carried out along the rows of two microtiter plates. The antibacterials were 2-fold diluted with Mueller-Hinton broth (MHB) in each column, reaching a volume of 75 µL. The 1.0 McFarland standard was diluted 15-fold in MHB, and 75 µL of inoculum was added to the wells treated with antibacterials, resulting in a total volume of 150 µL. The microtiter plates were covered and then shake-incubated overnight at 150 rpm and 37°C. MIC was determined based on visible bacterial growth. In cases of antibacterial opacity or ambiguous results, streaking of well cultures on MHA, overnight incubation, and subsequent comparison with controls were performed. MBC was determined by transferring 3 µL of culture from all MIC microtiter plate wells to 147 µL of Mueller-Hinton broth in fresh plates. These plates were shake-incubated overnight at 150 rpm and 37°C, and bacterial growth was visually inspected.

P. mirabilis ATCC 35659 = assay: as above; assay type: cell-based; conditions: Proteus mirabilis; for MBC: ATCC35659; for MIC: ATCC35659, planktonic, overnight 37°C in MHB
Method: as §1, §2

[1] = test system: Staphylococcus aureus ATCC 25923; assay: as above; assay type: cell-based; conditions: Staphylococcus aureus, ATCC25923, S. aureus; for MIC: planktonic, overnight 37°C in MHB
Method: as §1, §2

E. coli ATCC 25922 = assay: as above; assay type: cell-based; conditions: Escherichia coli; for MBC: ATCC25922; for MIC: ATCC25922, planktonic, overnight 37°C in MHB
Method: as §1, §2

[2] = test system: Klebsiella pneumoniae ATCC; assay: as above; assay type: cell-based; conditions: K. pneumonia; for MIC: planktonic, overnight 37°C in MHB
Method: as §1, §2

[3] = test system: S. epidermidis ATCC 12228; assay: as above; assay type: cell-based, Staphylococcus epidermidis; conditions: Staphylococcus epidermidis; for MBC: ATCC12228; for MIC: ATCC12228, planktonic, overnight 37°C in MHB
Method: as §1, §2

[4] = test system: 10 clinical isolates of MRSA from Foothills Hospital, Calgary; assay: Planktonic susceptibility (MIC/MBC) of MRSA clinical isolates; assay type: cell-based, methicillin-resistant S. aureus; conditions: Staphylococcus aureus
Method: as §1
as §2, with “In cases of antibacterial opacity or ambiguous results, streaking of well cultures on MHA, overnight incubation, and subsequent comparison with controls were performed.” left out

MRSA ATCC 33591 = assay: Planktonic susceptibility (MIC/MBC), 96-well broth microdilution; assay type: cell-based, methicillin-resistant S. aureus; conditions: Staphylococcus aureus, MRSA reference strain
Method: as §1
as §2, with “In cases of antibacterial opacity or ambiguous results, streaking of well cultures on MHA, overnight incubation, and subsequent comparison with controls were performed.” left out

Gram-positive bacteria = test system: Gram-positive bacteria; set-up: method as in PMID 12534815; conditions: cited from earlier work
Gram-negative pathogens = test system: Gram-negative pathogens; set-up: method as in PMID 12534815; conditions: cited from earlier work

SMILES | MIC (P. aeruginosa ATCC 27853) [µM] | MIC (P. mirabilis ATCC 35659) [µM] | MIC [1] [µM] | MIC (E. coli ATCC 25922) [µM] | MIC [2] [µM] | MIC [3] [µM] | MBC (P. aeruginosa ATCC 27853) [µM] | MBC (P. mirabilis ATCC 35659) [µM] | MBC [1] [µM] | MBC (E. coli ATCC 25922) [µM] | MBC [2] [µM] | MBC [3] [µM] | MBC ([4]; MRSA #1 clinical isolate) [µM] | MIC ([4]; MRSA #1 clinical isolate) [µM] | MBC ([4]; MRSA #2 clinical isolate) [µM] | MIC ([4]; MRSA #2 clinical isolate) [µM] | MBC ([4]; MRSA #3 clinical isolate) [µM] | MIC ([4]; MRSA #3 clinical isolate) [µM] | MBC ([4]; MRSA #4 clinical isolate) [µM] | MIC ([4]; MRSA #4 clinical isolate) [µM] | also measured
CNC(C)C1CCC(N)C(OC2C(N)CC(N)C(OC3OCC(C)(O)C(NC)C3O)C2O)O1 (stereo not shown) [Gen, Gentamicin, reference compound] | 12 (≈ 5.73 µg/mL) | 1 (≈ 0.478 µg/mL) | 40 (≈ 19.1 µg/mL) | 10 (≈ 4.78 µg/mL) | 1 (≈ 0.478 µg/mL) | 300 (≈ 143 µg/mL) | 1200 (≈ 573 µg/mL) | 50 (≈ 23.9 µg/mL) | 40 (≈ 19.1 µg/mL) | 10 (≈ 4.78 µg/mL) | 50 (≈ 23.9 µg/mL) | 300 (≈ 143 µg/mL) | 1600 (≈ 764 µg/mL) | 100 (≈ 47.8 µg/mL) | 200 (≈ 95.5 µg/mL) | 50 (≈ 23.9 µg/mL) | 50 (≈ 23.9 µg/mL) | 50 (≈ 23.9 µg/mL) | 50 (≈ 23.9 µg/mL) | 50 (≈ 23.9 µg/mL) | MBC ([4]; MRSA #5 clinical isolate): 6250 µM (≈ 2990 µg/mL); MIC ([4]; MRSA #5 clinical isolate): 800 µM (≈ 382 µg/mL); MBC ([4]; MRSA #6 clinical isolate): 25000 µM (≈ 11900 µg/mL); MIC ([4]; MRSA #6 clinical isolate): 3000 µM (≈ 1430 µg/mL); MBC ([4]; MRSA #7 clinical isolate): 1600 µM (≈ 764 µg/mL); MIC ([4]; MRSA #7 clinical isolate): 50 µM (≈ 23.9 µg/mL); MBC ([4]; MRSA #8 clinical isolate): 50 µM (≈ 23.9 µg/mL); MIC ([4]; MRSA #8 clinical isolate): 50 µM (≈ 23.9 µg/mL); MBC ([4]; MRSA #9 clinical isolate): 50 µM (≈ 23.9 µg/mL); MIC ([4]; MRSA #9 clinical isolate): 50 µM (≈ 23.9 µg/mL); MBC ([4]; MRSA #10 clinical isolate): 50 µM (≈ 23.9 µg/mL); MIC ([4]; MRSA #10 clinical isolate): 50 µM (≈ 23.9 µg/mL)
O=C(Nc1ccc(Cl)cc1)Nc1ccc(Cl)c(Cl)c1 [TCC, triclocarban] |  |  |  |  |  |  |  |  |  |  |  |  |  |  |  |  |  |  |  |  | antibacterial action against Gram-positive bacteria (Gram-positive bacteria): antibacterial action; activity against Gram-negative pathogens (Gram-negative pathogens): no activity
O=C(Nc1ccc(Cl)cc1)Nc1ccc(Cl)c(C(F)(F)F)c1 [cloflucarban, 3-trifluoromethyl-4,4′-dichlorocarbanilide] |  |  |  |  |  |  |  |  |  |  |  |  |  |  |  |  |  |  |  |  | antibacterial action against Gram-positive bacteria (Gram-positive bacteria): antibacterial action; activity against Gram-negative pathogens (Gram-negative pathogens): no activity

The next lines start with results.

MIC (P. aeruginosa ATCC 27853) [µM] | MIC (P. mirabilis ATCC 35659) [µM] | MIC [1] [µM] | MIC (E. coli ATCC 25922) [µM] | MIC [2] [µM] | MIC [3] [µM] | SMILES | MBC (P. aeruginosa ATCC 27853) [µM] | MBC (P. mirabilis ATCC 35659) [µM] | MBC [1] [µM] | MBC (E. coli ATCC 25922) [µM] | MBC [2] [µM] | MBC [3] [µM] | MBC ([4]; MRSA #1 clinical isolate) [µM] | MIC ([4]; MRSA #1 clinical isolate) [µM] | MBC ([4]; MRSA #2 clinical isolate) [µM] | MIC ([4]; MRSA #2 clinical isolate) [µM] | MBC ([4]; MRSA #3 clinical isolate) [µM] | MIC ([4]; MRSA #3 clinical isolate) [µM] | MBC ([4]; MRSA #4 clinical isolate) [µM] | MIC ([4]; MRSA #4 clinical isolate) [µM] | also measured
61 (≈ 20.2 µg/mL) | 20 (≈ 6.63 µg/mL) | 80 (≈ 26.5 µg/mL) | 2 (≈ 0.663 µg/mL) | 10 (≈ 3.31 µg/mL) | 1200 (≈ 398 µg/mL) | O=C(O)c1cn(C2CC2)c2cc(N3CCNCC3)c(F)cc2c1=O [Cip, Ciprofloxacin, reference compound] | 2400 (≈ 795 µg/mL) | 800 (≈ 265 µg/mL) | 80 (≈ 26.5 µg/mL) | 2 (≈ 0.663 µg/mL) | 500 (≈ 166 µg/mL) | 1200 (≈ 398 µg/mL) |  |  |  |  |  |  |  |  | 
 | 625 (≈ 254 µg/mL) | 480 (≈ 195 µg/mL) |  | > 5000 | 1200 (≈ 489 µg/mL) | O=C(Nc1ccc(Cl)cc1)Nc1cc(S(F)(F)(F)(F)F)ccc1Cl [EBP-40, 1-(2-Chloro-5-(pentafluoro-λ^6-sulfanyl)phenyl)-3-(4-chlorophenyl)urea] |  | 625 (≈ 254 µg/mL) | 1200 (≈ 489 µg/mL) |  | > 5000 | 900 (≈ 366 µg/mL) | 1200 (≈ 489 µg/mL) | 20 (≈ 8.14 µg/mL) | 40 (≈ 16.3 µg/mL) | 20 (≈ 8.14 µg/mL) | 160 (≈ 65.2 µg/mL) | 80 (≈ 32.6 µg/mL) | 160 (≈ 65.2 µg/mL) | 40 (≈ 16.3 µg/mL) | MBC ([4]; MRSA #5 clinical isolate): 40 µM (≈ 16.3 µg/mL); MIC ([4]; MRSA #5 clinical isolate): 20 µM (≈ 8.14 µg/mL); MBC ([4]; MRSA #6 clinical isolate): 160 µM (≈ 65.2 µg/mL); MIC ([4]; MRSA #6 clinical isolate): 40 µM (≈ 16.3 µg/mL); MBC ([4]; MRSA #7 clinical isolate): 80 µM (≈ 32.6 µg/mL); MIC ([4]; MRSA #7 clinical isolate): 40 µM (≈ 16.3 µg/mL); MBC ([4]; MRSA #8 clinical isolate): 80 µM (≈ 32.6 µg/mL); MIC ([4]; MRSA #8 clinical isolate): 40 µM (≈ 16.3 µg/mL); MBC ([4]; MRSA #9 clinical isolate): 80 µM (≈ 32.6 µg/mL); MIC ([4]; MRSA #9 clinical isolate): 20 µM (≈ 8.14 µg/mL); MBC (MRSA ATCC 33591): 610 µM (≈ 248 µg/mL); MIC (MRSA ATCC 33591; planktonic, overnight 37°C in MHB): 150 µM (≈ 61.1 µg/mL)
